From PubChem BioAssay AID2060494 (Molecular Pharmacology Branch, DTP, NCI, 2025)
pIC50: −log10 of the molar value.

Test system: 435261-313-R-J1-PDC complex spheroid viability
Test: Anticancer human tumor 435261-313-R-J1-PDC patient-derived colon adenocarcinoma cell line growth inhibition [GQUAD]
Conditions: for pIC50: curve of first compound; for viability, T/C: stronger effect = lower value
Procedure, shortened: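 Tumor cells were grown as complex spheroids with HUVEC endothelial cells and mesenchymal stem cells as stroma. G-quadruplex stabilizers were combined with targeted agents over half-log dilutions from near the clinical Cmax, or from 10 microM.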

[1] = second compound 0.0316 µM, first compound 0.0316 µM
[2] = second compound 0.0316 µM, first compound 0.1 µM
[3] = second compound 0.0316 µM, first compound 0.316 µM
[4] = second compound 0.0316 µM, first compound 1 µM
[5] = second compound 0.0316 µM, first compound 3.16 µM
[6] = second compound 0.0316 µM, first compound 10 µM
[7] = second compound 0.1 µM, first compound 0.0316 µM
[8] = second compound 0.1 µM, first compound 0.1 µM
[9] = second compound 0.1 µM, first compound 0.316 µM
[10] = second compound 0.1 µM, first compound 1 µM
[11] = second compound 0.1 µM, first compound 3.16 µM
[12] = second compound 0.1 µM, first compound 10 µM
[13] = second compound 0.316 µM, first compound 0.0316 µM
[14] = second compound 0.316 µM, first compound 0.1 µM
[15] = second compound 0.316 µM, first compound 0.316 µM
[16] = second compound 0.316 µM, first compound 1 µM
[17] = second compound 0.316 µM, first compound 3.16 µM
[18] = second compound 0.316 µM, first compound 10 µM
[19] = second compound 1 µM, first compound 0.0316 µM
[20] = second compound 1 µM, first compound 0.1 µM
[21] = second compound 1 µM, first compound 0.316 µM
[22] = second compound 1 µM, first compound 1 µM
[23] = second compound 1 µM, first compound 3.16 µM
[24] = second compound 1 µM, first compound 10 µM
[25] = second compound 3.16 µM, first compound 0.0316 µM
[26] = second compound 3.16 µM, first compound 0.1 µM
[27] = second compound 3.16 µM, first compound 0.316 µM
[28] = second compound 3.16 µM, first compound 1 µM
[29] = second compound 3.16 µM, first compound 3.16 µM
[30] = second compound 3.16 µM, first compound 10 µM
[31] = second compound 10 µM, first compound 0.0316 µM
[32] = second compound 10 µM, first compound 0.1 µM
[33] = second compound 10 µM, first compound 0.316 µM
[34] = second compound 10 µM, first compound 1 µM
[35] = second compound 10 µM, first compound 3.16 µM
[36] = second compound 10 µM, first compound 10 µM
[37] = second compound 0.0316 µM, first compound 0.000999 µM
[38] = second compound 0.0316 µM, first compound 0.00316 µM
[39] = second compound 0.0316 µM, first compound 0.00999 µM
[40] = second compound 0.0316 µM, first compound 0.0999 µM
[41] = second compound 0.1 µM, first compound 0.000999 µM
[42] = second compound 0.1 µM, first compound 0.00316 µM
[43] = second compound 0.1 µM, first compound 0.00999 µM
[44] = second compound 0.1 µM, first compound 0.0999 µM
[45] = second compound 0.316 µM, first compound 0.000999 µM
[46] = second compound 0.316 µM, first compound 0.00316 µM
[47] = second compound 0.316 µM, first compound 0.00999 µM
[48] = second compound 0.316 µM, first compound 0.0999 µM
[49] = second compound 1 µM, first compound 0.000999 µM
[50] = second compound 1 µM, first compound 0.00316 µM
[51] = second compound 1 µM, first compound 0.00999 µM
[52] = second compound 1 µM, first compound 0.0999 µM
[53] = second compound 3.16 µM, first compound 0.000999 µM
[54] = second compound 3.16 µM, first compound 0.00316 µM
[55] = second compound 3.16 µM, first compound 0.00999 µM
[56] = second compound 3.16 µM, first compound 0.0999 µM
[57] = second compound 10 µM, first compound 0.000999 µM
[58] = second compound 10 µM, first compound 0.00316 µM
[59] = second compound 10 µM, first compound 0.00999 µM
[60] = second compound 10 µM, first compound 0.0999 µM
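Also: spheroids exposed to the agents for seven days before readout.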
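For viability, T/C in this document: percent of vehicle control viability with DMSO wells as 100%.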

In the case of `C=CC(=O)N1CCN(c2nc(=O)n(-c3c(C)ccnc3C(C)C)c3nc(-c4c(O)cccc4F)c(F)cc23)C(C)C1` (stereo not drawn) + CN(C)c1ccc(Nc2c3ccc(NC(=O)CCN4CCCC4)cc3nc3cc(NC(=O)CCN4CCCC4)ccc23)cc1, the pIC50 (second compound 0.0316 µM) was < 5.00, the pIC50 (second compound 0.1 µM) was < 5.00 and the pIC50 (second compound 0.316 µM) was < 5.00. For the same compound, the pIC50 (second compound 1 µM) was < 5.00, the pIC50 (second compound 3.16 µM) was < 5.00 and the pIC50 (second compound 10 µM) was > 7.50. It also gave a viability, T/C [1] of 98.5%, a viability, T/C [2] of 146% and a viability, T/C [3] of 119%. The viability, T/C [4] was 97.6%, the viability, T/C [5] was 100% and the viability, T/C [6] was 105%. For the same compound, the viability, T/C [7] was 111%, the viability, T/C [8] was 109% and the viability, T/C [9] was 111%. For the same compound, the viability, T/C [10] was 138%, the viability, T/C [11] was 115% and the viability, T/C [12] was 173%. The viability, T/C [13] was 159%, the viability, T/C [14] was 106% and the viability, T/C [15] was 123%. It also gave a viability, T/C [16] of 120%, a viability, T/C [17] of 111% and a viability, T/C [18] of 103%. The viability, T/C [19] was 122%, the viability, T/C [20] was 101% and the viability, T/C [21] was 149%. The viability, T/C [22] was 99.8%, the viability, T/C [23] was 145% and the viability, T/C [24] was 109%. It also gave a viability, T/C [25] of 69.4%, a viability, T/C [26] of 98.3% and a viability, T/C [27] of 114%. The viability, T/C [28] was 113%, the viability, T/C [29] was 102% and the viability, T/C [30] was 87.1%. For the same compound, the viability, T/C [31] was 30.8%, the viability, T/C [32] was 45.6% and the viability, T/C [33] was 54%. For the same compound, the viability, T/C [34] was 71.5%, the viability, T/C [35] was 70.9% and the viability, T/C [36] was 30.2%.
`CC[C@@]1(O)C(=O)OCc2c1cc1n(c2=O)Cc2cc3c(CN(C)C)c(O)ccc3nc2-1` + CN(C)c1ccc(Nc2c3ccc(NC(=O)CCN4CCCC4)cc3nc3cc(NC(=O)CCN4CCCC4)ccc23)cc1 was tested, and the pIC50 (second compound 0.0316 µM) was < 6.50, the pIC50 (second compound 0.1 µM) was < 6.50 and the pIC50 (second compound 0.316 µM) was < 6.50. The pIC50 (second compound 1 µM) was < 6.50, the pIC50 (second compound 3.16 µM) was 7.14 and the pIC50 (second compound 10 µM) was > 9.00. For the same compound, the viability, T/C [37] was 110%, the viability, T/C [38] was 96.6% and the viability, T/C [39] was 116%. The viability, T/C [1] was 87.2%, the viability, T/C [40] was 67.5% and the viability, T/C [3] was 88.7%. The viability, T/C [41] was 119%, the viability, T/C [42] was 111% and the viability, T/C [43] was 101%. The viability, T/C [7] was 84.6%, the viability, T/C [44] was 76.1% and the viability, T/C [9] was 77.2%. The viability, T/C [45] was 108%, the viability, T/C [46] was 99.6% and the viability, T/C [47] was 87.5%. The viability, T/C [13] was 64.2%, the viability, T/C [48] was 73.7% and the viability, T/C [15] was 74.2%. It also gave a viability, T/C [49] of 88.4%, a viability, T/C [50] of 99.3% and a viability, T/C [51] of 87.8%. It also gave a viability, T/C [19] of 81.5%, a viability, T/C [52] of 82.3% and a viability, T/C [21] of 84.1%. It also gave a viability, T/C [53] of 75.2%, a viability, T/C [54] of 62.8% and a viability, T/C [55] of 78.6%. It also gave a viability, T/C [25] of 63.4%, a viability, T/C [56] of 45.3% and a viability, T/C [27] of 44.3%. It also gave a viability, T/C [57] of 39.9%, a viability, T/C [58] of 40.5% and a viability, T/C [59] of 33.6%. The viability, T/C [31] was 36.5%, the viability, T/C [60] was 29.8% and the viability, T/C [33] was 22%.
For `CCc1c2c(nc3ccc(O)cc13)-c1cc3c(c(=O)n1C2)COC(=O)[C@]3(O)CC` + CN(C)c1ccc(Nc2c3ccc(NC(=O)CCN4CCCC4)cc3nc3cc(NC(=O)CCN4CCCC4)ccc23)cc1, the pIC50 (second compound 0.0316 µM) was < 6.50, the pIC50 (second compound 0.1 µM) was 6.62 and the pIC50 (second compound 0.316 µM) was 7.02. The pIC50 (second compound 1 µM) was 6.98, the pIC50 (second compound 3.16 µM) was 7.36 and the pIC50 (second compound 10 µM) was > 9.00. The viability, T/C [37] was 111%, the viability, T/C [38] was 103% and the viability, T/C [39] was 73.4%. For the same compound, the viability, T/C [1] was 69.2%, the viability, T/C [40] was 65.1% and the viability, T/C [3] was 48.6%. It also gave a viability, T/C [41] of 86.2%, a viability, T/C [42] of 91.2% and a viability, T/C [43] of 72.3%. For the same compound, the viability, T/C [7] was 74.5%, the viability, T/C [44] was 72.4% and the viability, T/C [9] was 42.3%. For the same compound, the viability, T/C [45] was 76.4%, the viability, T/C [46] was 77.1% and the viability, T/C [47] was 66.7%. It also gave a viability, T/C [13] of 78.8%, a viability, T/C [48] of 48.9% and a viability, T/C [15] of 45.1%. The viability, T/C [49] was 62.2%, the viability, T/C [50] was 81.2% and the viability, T/C [51] was 65.2%. It also gave a viability, T/C [19] of 70.9%, a viability, T/C [52] of 50.4% and a viability, T/C [21] of 39.3%. It also gave a viability, T/C [53] of 50.2%, a viability, T/C [54] of 57% and a viability, T/C [55] of 56.8%. It also gave a viability, T/C [25] of 56.2%, a viability, T/C [56] of 37.1% and a viability, T/C [27] of 22.2%. It also gave a viability, T/C [57] of 34.9%, a viability, T/C [58] of 30.8% and a viability, T/C [59] of 29.8%. It also gave a viability, T/C [31] of 27.1%, a viability, T/C [60] of 18.6% and a viability, T/C [33] of 13.6%.
`COc1cc(C2c3cc4c(cc3C(OC3OC5COC(C)OC5C(O)C3O)C3COC(=O)C23)OCO4)cc(OC)c1O` (stereo not drawn) + CN(C)c1ccc(Nc2c3ccc(NC(=O)CCN4CCCC4)cc3nc3cc(NC(=O)CCN4CCCC4)ccc23)cc1 was tested, and the pIC50 (second compound 0.0316 µM) was < 5.00, the pIC50 (second compound 0.1 µM) was < 5.00 and the pIC50 (second compound 0.316 µM) was < 5.00. The pIC50 (second compound 1 µM) was < 5.00, the pIC50 (second compound 3.16 µM) was < 5.00 and the pIC50 (second compound 10 µM) was 7.15. For the same compound, the viability, T/C [1] was 93.5%, the viability, T/C [2] was 117% and the viability, T/C [3] was 77.8%. It also gave a viability, T/C [4] of 74.4%, a viability, T/C [5] of 75.9% and a viability, T/C [6] of 61.2%. The viability, T/C [7] was 81.8%, the viability, T/C [8] was 87.3% and the viability, T/C [9] was 74.8%. The viability, T/C [10] was 80.7%, the viability, T/C [11] was 82.1% and the viability, T/C [12] was 74.1%. It also gave a viability, T/C [13] of 100%, a viability, T/C [14] of 95.2% and a viability, T/C [15] of 65.1%. The viability, T/C [16] was 71%, the viability, T/C [17] was 91.6% and the viability, T/C [18] was 74.4%. The viability, T/C [19] was 78.9%, the viability, T/C [20] was 91.4% and the viability, T/C [21] was 74.3%. For the same compound, the viability, T/C [22] was 76.4%, the viability, T/C [23] was 71.1% and the viability, T/C [24] was 57.1%. It also gave a viability, T/C [25] of 62.6%, a viability, T/C [26] of 69.2% and a viability, T/C [27] of 65.5%. The viability, T/C [28] was 55.2%, the viability, T/C [29] was 62.4% and the viability, T/C [30] was 45.7%. For the same compound, the viability, T/C [31] was 63%, the viability, T/C [32] was 42.4% and the viability, T/C [33] was 37.9%. For the same compound, the viability, T/C [34] was 29%, the viability, T/C [35] was 27.1% and the viability, T/C [36] was 26.4%.
